Data as given in US12404283B2, “c-MYC mRNA translation modulators and uses thereof in the treatment of cancer” (Anima Biotech Inc., priority 2022, dated 2025).

Tested on: c-Myc
Assay: c-Myc immunofluorescence assay
Format: cell-based, human
Settings: A549 cells, 24 hours treatment, anti-c-Myc immunofluorescence
Summary of the method: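 A549 cells grown 48 h, exposed 24 h to rising compound concentrations, then fixed, permeabilised and stained for c-Myc plus DAPI. Nuclear-segmented c-Myc fluorescence quantified by high-content imaging at 20×; EC50 from logistic dose–response fits.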

Structure (SMILES) | Myc Efficacy (−LogEC50)
NCc1ccc(-c2cn3c(n2)sc2cc(C(=O)NCCCN4CCCCC4)ccc23)c(C(F)(F)F)c1 [compound 372, 2-(4-(aminomethyl)-2-(trifluoromethyl)phenyl)-N-(3-(piperidin-1-yl)propyl)benzo[d]imidazo [2,1-b]thiazole-7-carboxamide] | ++ (++ ≥5 and <6)
O=C(NCCCN1CCCCC1)c1ccc2c(c1)sc1nc(-c3ccc(C4CCCN4)cc3)cn12 (stereo not shown) [compound 373, N-(3-(piperidin-1-yl)propyl)-2-(4-(pyrrolidin-2-yl)phenyl)benzo[d]imidazo [2,1-b]thiazole-7-carboxamide] | +++ (+++ ≥6)
NCc1ccc(-c2cn3c(n2)sc2cc(C(=O)NCCCN4CCCCC4)ccc23)c(F)c1 [compound 374, 2-(4-(aminomethyl)-2-fluorophenyl)-N-(3-(piperidin-1-yl)propyl)benzo[d]imidazo [2,1-b]thiazole-7-carboxamide] | +++ (+++ ≥6)
NCc1ccc(-c2cn3c(n2)sc2cc(C(=O)NCCCN4CCCCC4)ccc23)cc1F [compound 375, 2-(4-(aminomethyl)-3-fluorophenyl)-N-(3-(piperidin-1-yl)propyl)benzo[d]imidazo [2,1-b]thiazole-7-carboxamide] | +++ (+++ ≥6)
NCc1ccc(-c2cn3c(n2)sc2cc(C(=O)NCCCN4CCCCC4)ccc23)cc1Cl [compound 376, 2-(4-(aminomethyl)-3-chlorophenyl)-N-(3-(piperidin-1-yl)propyl)benzo[d]imidazo [2,1-b]thiazole-7-carboxamide] | +++ (+++ ≥6)
NCc1ccc(-c2cn3c(n2)sc2cc(C(=O)NCCCN4CCCCC4)ccc23)cc1C(F)(F)F [compound 378, 2-(4-(aminomethyl)-3-(trifluoromethyl)phenyl)-N-(3-(piperidin-1-yl)propyl)benzo[d]imidazo [2,1-b]thiazole-7-carboxamide] | +++ (+++ ≥6)
NCc1ccc(-c2cn3c(n2)sc2cc(C(=O)NCCCN4CCCCC4)ccc23)cc1C(F)F [compound 379, 2-(4-(aminomethyl)-3-(difluoromethyl)phenyl)-N-(3-(piperidin-1-yl)propyl)benzo[d]imidazo [2,1-b]thiazole-7-carboxamide] | +++ (+++ ≥6)
Cc1cc(-c2cn3c(n2)sc2cc(C(=O)NCCCN4CCCCC4)ccc23)ccc1CN [compound 381, 2-(4-(aminomethyl)-3-methylphenyl)-N-(3-(piperidin-1-yl)propyl)benzo[d]imidazo [2,1-b]thiazole-7-carboxamide] | +++ (+++ ≥6)
NCc1c(F)cc(-c2cn3c(n2)sc2cc(C(=O)NCCCN4CCCCC4)ccc23)cc1F [compound 383, 2-(4-(aminomethyl)-3,5-difluorophenyl)-N-(3-(piperidin-1-yl)propyl)benzo[d]imidazo [2,1-b]thiazole-7-carboxamide] | ++ (++ ≥5 and <6)
NCc1c(F)cc(-c2cn3c(n2)sc2cc(C(=O)NCCCN4CCCCC4)ccc23)cc1Cl [compound 384, 2-(4-(aminomethyl)-3-chloro-5-fluorophenyl)-N-(3-(piperidin-1-yl)propyl)benzo[d]imidazo [2,1-b]thiazole-7-carboxamide] | ++ (++ ≥5 and <6)
CNC(=O)c1ccc(-c2nc3sc4cc(C(=O)NCCCN5CCCCC5)ccc4n3n2)c(F)c1 [compound 386, 2-(2-fluoro-4-(methylcarbamoyl)phenyl)-N-(3-(piperidin-1-yl)propyl)benzo[4,5]thiazolo [3,2-b][1,2,4]triazole-6-carboxamide] | +++ (+++ ≥6)
NCc1ccc(-c2nc3sc4cc(C(=O)NCCCN5CCCCC5)ccc4n3n2)c(F)c1 [compound 387, 2-(4-(aminomethyl)-2-fluorophenyl)-N-(3-(piperidin-1-yl)propyl)benzo[4,5]thiazolo [3,2-b][1,2,4]triazole-6-carboxamide] | +++ (+++ ≥6)
CCN(CC)CCCNC(=O)c1ccc2c(c1)sc1nc(-c3ccc(CN)cc3F)nn12 [compound 388, 2-(4-(aminomethyl)-2-fluorophenyl)-N-(3-(diethylamino)propyl) benzo[4,5]thiazolo[3,2-b][1,2,4]triazole-6-carboxamide] | ++ (++ ≥5 and <6)
CNC(=O)c1ccc(-c2nc3sc4cc(C(=O)NCCCN5CCC(F)CC5)ccc4n3n2)c(F)c1 [compound 389, 2-(2-fluoro-4-(methylcarbamoyl)phenyl)-N-(3-(4-fluoropiperidin-1-yl)propyl)benzo[4,5]thiazolo [3,2-b][1,2,4]triazole-6-carboxamide] | ++ (++ ≥5 and <6)
NCc1ccc(-c2nc3sc4cc(C(=O)NCCCN5CCC(F)CC5)ccc4n3n2)c(F)c1 [compound 390, 2-(4-(aminomethyl)-2-fluorophenyl)-N-(3-(4-fluoropiperidin-1-yl)propyl)benzo[4,5]thiazolo [3,2-b][1,2,4]triazole-6-carboxamide] | ++ (++ ≥5 and <6)
NCc1ccc(-c2nc3sc4cc(C(=O)NCCCN5CCCCC5)ccc4n3n2)cc1 [compound 392, 2-(4-(aminomethyl)phenyl)-N-(3-(piperidin-1-yl)propyl)benzo[4,5]thiazolo [3,2-b][1,2,4]triazole-6-carboxamide] | +++ (+++ ≥6)
O=C(NCCCN1CCCCC1)c1ccc2c(c1)sc1nc(-c3ccc(CNC4CC4)cc3)nn12 [compound 393, 2-(4-((cyclopropylamino)methyl)phenyl)-N-(3-(piperidin-1-yl)propyl)benzo[4,5]thiazolo [3,2-b][1,2,4]triazole-6-carboxamide] | +++ (+++ ≥6)
CCN(CC)CCCNC(=O)c1ccc2c(c1)sc1nc(-c3ccc(CNC4CC4)cc3)nn12 [compound 394, 2-(4-((cyclopropylamino)methyl)phenyl)-N-(3-(diethylamino)propyl)benzo [4,5]thiazolo[3,2-b][1,2,4]triazole-6-carboxamide] | ++ (++ ≥5 and <6)
CCN(CC)CCCNC(=O)c1ccc2c(c1)sc1nc(-c3ccc(CNC4CC4)cc3F)nn12 [compound 395, 2-(4-((cyclopropylamino)methyl)-2-fluorophenyl)-N-(3-(diethylamino)propyl)benzo [4,5]thiazolo[3,2-b][1,2,4]triazole-6-carboxamide] | ++ (++ ≥5 and <6)
O=C(NCCCN1CCCCC1)c1ccc2c(c1)sc1nc(-c3ccc(CNC4CC4)cc3F)nn12 [compound 396, 2-(4-((cyclopropylamino)methyl)-2-fluorophenyl)-N-(3-(piperidin-1-yl)propyl)benzo[4,5]thiazolo [3,2-b][1,2,4]triazole-6-carboxamide] | ++ (++ ≥5 and <6)
CCN(CC)CCCNC(=O)c1ccc2c(c1)sc1nc(-c3ccc(C4(N)CC4)cc3)nn12 [compound 397, 2-(4-(1-aminocyclopropyl)phenyl)-N-(3-(diethylamino)propyl)benzo [4,5]thiazolo[3,2-b][1,2,4]triazole-6-carboxamide] | ++ (++ ≥5 and <6)
NC1(c2ccc(-c3nc4sc5cc(C(=O)NCCCN6CCCCC6)ccc5n4n3)cc2)CC1 [compound 398, 2-(4-(1-aminocyclopropyl)phenyl)-N-(3-(piperidin-1-yl)propyl)benzo[4,5]thiazolo [3,2-b][1,2,4]triazole-6-carboxamide] | ++ (++ ≥5 and <6)
